The source of these data is ChEMBL document CHEMBL3352151, “In vitro and in vivo antibacterial evaluation and mechanistic study of ornithine based small cationic lipopeptides against antibiotic resistant clinical isolates” (Eur J Med Chem, 2014).

In brackets after ≈: the same amount, converted by molar mass. Square brackets hold non-standard residues; d marks the D form. Peptide text beside a SMILES is read from it. * marks the point of attachment. Palmitoyl = CCCCCCCCCCCCCCCC(=O)*; Orn = NCCC[CH](N)C(=O)O

Data set [1] concerns Staphylococcus epidermidis. Briefly: Antibacterial activity against clinical isolates of ampicillin-resistant Staphylococcus epidermidis GMCH/R-Amp008 after overnight incubation by microdilution broth assay. Type of data set: functional.
The subject of data set [2] is Pseudomonas aeruginosa. Description: Antibacterial activity against clinical isolates of streptomycin-resistant Pseudomonas aeruginosa PGI/DML01991 after overnight incubation by microdilution broth assay. Type of data set: functional. In general terms: Broth dilution looks for growth in wells or tubes with falling amounts of substance.
In data set [3] the test system is Enterococcus faecium. Briefly: Antibacterial activity against clinical isolates of penicillin-resistant Enterococcus faecium GMCH/R-Pen003 after overnight incubation by microdilution broth assay. It is filed as functional.
In data set [4] the test system is Staphylococcus aureus. Briefly: Antibacterial activity against clinical isolates of Staphylococcus aureus PGI/DML03054 after overnight incubation by microdilution broth assay. It is filed as functional.
The test system of data set [5] is Haemophilus influenzae. Briefly: Antibacterial activity against clinical isolates of ciprofloxacin-resistant Haemophilus influenzae PGI/DML01744 after overnight incubation by microdilution broth assay. It is filed as functional.
A short description of data set [6]: Cytotoxicity against human HaCaT cells assessed as cell viability at 100 ug/ml after 18 hrs by MTT assay. Type of data set: cell-based. The conditions noted are these: read-out: Activity.
Data set [7] has as its system Enterococcus faecium. Briefly: Antibacterial activity against clinical isolates of Enterococcus faecium GMCH/B0102 after overnight incubation by microdilution broth assay. Type of data set: functional.
Data set [8] deals with Klebsiella pneumoniae. Briefly: Antibacterial activity against clinical isolates of kanamycin-resistant Klebsiella pneumoniae GMCH/R-Kan006 after overnight incubation by microdilution broth assay. Type of data set: functional.
For data set [9], the system named is Streptococcus pneumoniae. Description: Antibacterial activity against clinical isolates of Streptococcus pneumoniae PGI/DML02468 after overnight incubation by microdilution broth assay. It is filed as functional.
For data set [10], the system named is Enterococcus faecalis. Briefly: Antibacterial activity against clinical isolates of Enterococcus faecalis GMCH/B0091 after overnight incubation by microdilution broth assay. It is filed as functional.
A short description of data set [11]: Cytotoxicity against human HaCaT cells assessed as cell viability at 500 ug/ml after 18 hrs by MTT assay. It is filed as cell-based. The conditions noted are these: read-out: Activity. (Tetrazolium assays rely on reduction of a dye to a coloured formazan, in cell work by metabolically active cells.)
In data set [12] the test system is Enterococcus faecalis. Description: Antibacterial activity against clinical isolates of gentamicin-resistant Enterococcus faecalis GMCH/R-Gen011 after overnight incubation by microdilution broth assay. It is filed as functional.
The test system of data set [13] is Staphylococcus aureus. Briefly: Antibacterial activity against clinical isolates of methicillin-resistant Staphylococcus aureus PGI/DML03149 after overnight incubation by microdilution broth assay. It is filed as functional.
In data set [14] the test system is Escherichia coli. Briefly: Antibacterial activity against clinical isolates of imipenem-resistant Escherichia coli PGI/DML02292 after overnight incubation by microdilution broth assay. Type of data set: functional.
The test system of data set [15] is Staphylococcus epidermidis. Description: Antibacterial activity against clinical isolates of Staphylococcus epidermidis GMCH/B0057 after overnight incubation by microdilution broth assay. It is filed as functional.
Data set [16] relates to Klebsiella pneumoniae. Briefly: Antibacterial activity against clinical isolates of Klebsiella pneumoniae GMCH/B0127 after overnight incubation by microdilution broth assay. Type of data set: functional.
Data set [17] deals with Escherichia coli. Briefly: Antibacterial activity against clinical isolates of Escherichia coli PGI/DML02250 after overnight incubation by microdilution broth assay. It is filed as functional.
The subject of data set [18] is Acinetobacter baumannii. Description: Antibacterial activity against clinical isolates of Acinetobacter baumannii GMCH/B0083 after overnight incubation by microdilution broth assay. Type of data set: functional.
In data set [19] the test system is Streptococcus pneumoniae. Briefly: Antibacterial activity against clinical isolates of erythromycin-resistant Streptococcus pneumoniae PGI/DML02213 after overnight incubation by microdilution broth assay. It is filed as functional.
In data set [20] the test system is Acinetobacter baumannii. Briefly: Antibacterial activity against clinical isolates of imipenem-resistant Acinetobacter baumannii GMCH/R-Imi003 after overnight incubation by microdilution broth assay. It is filed as functional.
Data set [21] concerns Haemophilus influenzae. Briefly: Antibacterial activity against clinical isolates of Haemophilus influenzae PGI/DML01751 after overnight incubation by microdilution broth assay. It is filed as functional.
Data set [22] deals with Pseudomonas aeruginosa. Briefly: Antibacterial activity against clinical isolates of Pseudomonas aeruginosa PGI/DML02084 after overnight incubation by microdilution broth assay. Type of data set: functional.

Consider `CCCCCCCCCCCCCCCCCC(=O)NC(CCCN)C(=O)NC(CCCN)C(=O)NC(CCCN)C(N)=O` (stereo not drawn), for which the MIC stood at 5 µg/mL (≈ 7.99 µM) in data set [1]; 4.5 µg/mL (≈ 7.19 µM) in the data set on Pseudomonas aeruginosa [2]; 7.5 µg/mL (≈ 12 µM) in the data set on Enterococcus faecium [3]; 6.2 µg/mL (≈ 9.91 µM) against Staphylococcus aureus [4]; 7.5 µg/mL (≈ 12 µM) with Haemophilus influenzae [5]; 4.5 µg/mL (≈ 7.19 µM) with Enterococcus faecium [7]. The MIC in the data set with Klebsiella pneumoniae [8] is 7.5 µg/mL (≈ 12 µM); in the data set with Streptococcus pneumoniae [9], 2.5 µg/mL (≈ 3.99 µM); against Enterococcus faecalis [10], 2.5 µg/mL (≈ 3.99 µM); against Enterococcus faecalis [12], 6.25 µg/mL (≈ 9.98 µM); against Staphylococcus aureus [13], 5.5 µg/mL (≈ 8.79 µM); against Escherichia coli [14], 7.5 µg/mL (≈ 12 µM). The MIC in data set [15] is 7.5 µg/mL (≈ 12 µM); against Klebsiella pneumoniae [16], 3.5 µg/mL (≈ 5.59 µM); in the data set on Escherichia coli [17], 10 µg/mL (≈ 16 µM); against Acinetobacter baumannii [18] it was 6.5 µg/mL (≈ 10.4 µM); in the data set on Streptococcus pneumoniae [19], 5 µg/mL (≈ 7.99 µM); against Acinetobacter baumannii [20], 4.5 µg/mL (≈ 7.19 µM). For the same compound, the values for the MIC in the data set with Haemophilus influenzae [21] and against Pseudomonas aeruginosa [22] were 10 µg/mL (≈ 16 µM) and 1.5 µg/mL (≈ 2.4 µM), respectively. Moreover, the viability at 18 h, 100 ug/ml in data set [6] is over 80%. Also, in [11], the viability at 18 h, 500 ug/ml is over 80%.

Turning to `CCCCCCCCCCCCCCCC(=O)NC(CCCN)C(=O)NC(CCCN)C(=O)NC(CCCN)C(N)=O` (stereo not drawn), the MIC turned out to be 5.5 µg/mL (≈ 9.2 µM) in data set [1]; 3.1 µg/mL (≈ 5.18 µM) against Pseudomonas aeruginosa [2]; 5 µg/mL (≈ 8.36 µM) in the data set on Enterococcus faecium [3]; 5 µg/mL (≈ 8.36 µM) against Staphylococcus aureus [4]; 5.5 µg/mL (≈ 9.2 µM) with Haemophilus influenzae [5]; 3 µg/mL (≈ 5.02 µM) in the data set with Enterococcus faecium [7]. Besides, the MIC with Klebsiella pneumoniae [8] came to 3.1 µg/mL (≈ 5.18 µM); against Streptococcus pneumoniae [9], 3.1 µg/mL (≈ 5.18 µM); in the data set with Enterococcus faecalis [10], 3.1 µg/mL (≈ 5.18 µM); in the data set with Enterococcus faecalis [12], 5 µg/mL (≈ 8.36 µM); against Staphylococcus aureus [13], 4.5 µg/mL (≈ 7.53 µM); in the data set on Escherichia coli [14] it was 6.25 µg/mL (≈ 10.5 µM). In addition, the MIC was found to be 4 µg/mL (≈ 6.69 µM) in [15]; 3.5 µg/mL (≈ 5.85 µM) with Klebsiella pneumoniae [16]; 5.5 µg/mL (≈ 9.2 µM) with Escherichia coli [17]; 4 µg/mL (≈ 6.69 µM) against Acinetobacter baumannii [18]; 3.5 µg/mL (≈ 5.85 µM) in the data set on Streptococcus pneumoniae [19]; 5.5 µg/mL (≈ 9.2 µM) in the data set on Acinetobacter baumannii [20]. Further, the MIC against Haemophilus influenzae [21] worked out at 5 µg/mL (≈ 8.36 µM); in the data set with Pseudomonas aeruginosa [22], 2.5 µg/mL (≈ 4.18 µM). Moreover, in [6], the viability at 18 h, 100 ug/ml was over 80%. Besides, the viability at 18 h, 500 ug/ml in data set [11] was over 80%.

Turning to `CCCCCCCCCCCCCCCC(=O)NC(CCCN)C(=O)NC(CCCN)C(=O)NC(CCCN)C(=O)NC(CCCN)C(=O)NC(CCCN)C(N)=O` (stereo not drawn) (Palmitoyl-[Orn][Orn][Orn][Orn][Orn]-NH2; configuration not given here), the MIC in data set [1] stood at 7.5 µg/mL (≈ 9.08 µM); with Pseudomonas aeruginosa [2], 6.5 µg/mL (≈ 7.87 µM); against Enterococcus faecium [3], 7.5 µg/mL (≈ 9.08 µM); against Staphylococcus aureus [4], 7.5 µg/mL (≈ 9.08 µM); with Haemophilus influenzae [5], 12.5 µg/mL (≈ 15.1 µM); against Enterococcus faecium [7], 3 µg/mL (≈ 3.63 µM). Further, the MIC in the data set on Klebsiella pneumoniae [8] is 10 µg/mL (≈ 12.1 µM); in the data set on Streptococcus pneumoniae [9], 3.1 µg/mL (≈ 3.75 µM); in the data set on Enterococcus faecalis [10], 2 µg/mL (≈ 2.42 µM); in the data set with Enterococcus faecalis [12], 12.5 µg/mL (≈ 15.1 µM); against Staphylococcus aureus [13] it was 10 µg/mL (≈ 12.1 µM); against Escherichia coli [14] it was 5 µg/mL (≈ 6.05 µM). For the same compound, the MIC in data set [15] was determined as 3.1 µg/mL (≈ 3.75 µM); with Klebsiella pneumoniae [16] it was 2.5 µg/mL (≈ 3.03 µM); against Escherichia coli [17] it was 1.5 µg/mL (≈ 1.82 µM); against Acinetobacter baumannii [18], 12.5 µg/mL (≈ 15.1 µM); in the data set on Streptococcus pneumoniae [19] it was 7.5 µg/mL (≈ 9.08 µM); in the data set on Acinetobacter baumannii [20], 9.5 µg/mL (≈ 11.5 µM). In addition, the MIC with Haemophilus influenzae [21] turned out to be 10 µg/mL (≈ 12.1 µM); in the data set with Pseudomonas aeruginosa [22] it was 2 µg/mL (≈ 2.42 µM). Further, the viability at 18 h, 100 ug/ml in data set [6] is over 80%. The viability at 18 h, 500 ug/ml in data set [11] was over 80%.

With `CCCCCCCCCCCCCCCC(=O)NC(CCCN)C(=O)NC(CCCN)C(=O)NC(CCCN)C(=O)NC(CCCN)C(N)=O` (stereo not drawn) (Palmitoyl-[Orn][Orn][Orn][Orn]-NH2; configuration not given here), the MIC came out at 2 µg/mL (≈ 2.81 µM) in [1]; 6.25 µg/mL (≈ 8.78 µM) in the data set on Pseudomonas aeruginosa [2]; 3.5 µg/mL (≈ 4.92 µM) with Enterococcus faecium [3]; 3.1 µg/mL (≈ 4.35 µM) against Staphylococcus aureus [4]; 12.5 µg/mL (≈ 17.6 µM) in the data set with Haemophilus influenzae [5]; 3.5 µg/mL (≈ 4.92 µM) in the data set on Enterococcus faecium [7]. Besides, the MIC against Klebsiella pneumoniae [8] stood at 5.5 µg/mL (≈ 7.72 µM); with Streptococcus pneumoniae [9], 2.5 µg/mL (≈ 3.51 µM); against Enterococcus faecalis [10] it was 3.5 µg/mL (≈ 4.92 µM); in the data set with Enterococcus faecalis [12], 7.5 µg/mL (≈ 10.5 µM); in the data set with Staphylococcus aureus [13], 4.5 µg/mL (≈ 6.32 µM); in the data set with Escherichia coli [14], 12.5 µg/mL (≈ 17.6 µM). In addition, the MIC in data set [15] was determined as 2.5 µg/mL (≈ 3.51 µM); against Klebsiella pneumoniae [16] it was 2 µg/mL (≈ 2.81 µM); in the data set with Escherichia coli [17], 2 µg/mL (≈ 2.81 µM); against Acinetobacter baumannii [18] it was 6.5 µg/mL (≈ 9.13 µM); against Streptococcus pneumoniae [19] it was 10.5 µg/mL (≈ 14.7 µM); with Acinetobacter baumannii [20], 10 µg/mL (≈ 14 µM). Besides, the MIC came to 7.5 µg/mL (≈ 10.5 µM) against Haemophilus influenzae [21] and 3 µg/mL (≈ 4.21 µM) against Pseudomonas aeruginosa [22]. The viability at 18 h, 100 ug/ml in data set [6] is over 80%. Besides, the viability at 18 h, 500 ug/ml in [11] was over 80%.
